We go through 2 compounds from US8912226B2 (priority 2012, dated 2014).

Values joined by “and” are separate entries in the source; they are usually repeats but may differ in a detail not shown here. Equal entries are not always repeated.

In this assay the test system is rat. The experiment in a line: animal or person. It counts as in vivo. The following applies: for ED50: ip.

Take `COc1ccc2c(c1)c(CC(=O)O)c(C)n2C(=O)c1ccc(Cl)cc1` [Indometacin]: the ED50 (Rattus norvegicus, 2 h) came to 161 mg/kg. Moreover, where the note is “rat, in vivo”, the “timepoint of peak effect” value is listed as 120 min p. appl; the ED50 was 161,327 μg/kg and 161,327 (149,231- μg/kg.

Regarding `O=C(O)Cc1ccccc1Nc1c(Cl)cccc1Cl` [Diclofenac sodium], the ED50 (Rattus norvegicus, 2 h) worked out at 127 mg/kg. In addition, for the setting “rat, in vivo”, the “timepoint of peak effect” value is on record as 120 min p. appl; the ED50 was 127,036 μg/kg and 127,036 (119,433- μg/kg.
